From ChEMBL document CHEMBL1201862, “PubChem BioAssay data set” (2004)
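48-hour exposure; five concentrations; linearly interpolated endpoints. GI50 is the concentration that inhibits growth by half.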 Active and inactive are the calls of the source. Rule as the data show it: active = GI50 up to about 1.1 µM and inactive = higher.

What was measured:
Test in all cases: DTP human tumour cell line panel, 48 h
A549 = tested on: A549
HOP-62 = tested on: HOP-62
PC-3 = tested on: PC-3
NCI-H23 = tested on: NCI-H23
HOP-92 = tested on: HOP-92
CAKI-1 = tested on: CAKI-1
CCRF-CEM = tested on: CCRF-CEM
SK-MEL-2 = tested on: SK-MEL-2
SF-295 = tested on: SF-295
MCF7 = tested on: MCF7
MDA-MB-231 = tested on: MDA-MB-231
SF-268 = tested on: SF-268
SW-620 = tested on: SW-620
SNB-19 = tested on: SNB-19
KM12 = tested on: KM12
ACHN = tested on: ACHN
TK-10 = tested on: TK-10
UACC-257 = tested on: UACC-257
RXF 393 = tested on: RXF 393
M14 = tested on: M14
LOX IMVI = tested on: LOX IMVI
T47D = tested on: T47D
COLO 205 = tested on: COLO 205
K562 = tested on: K562
U-251 = tested on: U-251
UACC-62 = tested on: UACC-62
EKVX = tested on: EKVX
MDA-N = tested on: MDA-N
HCT-116 = tested on: HCT-116
IGROV-1 = tested on: IGROV-1
NCI-H226 = tested on: NCI-H226
MOLT-4 = tested on: MOLT-4
NCI-H460 = tested on: NCI-H460
HCT-15 = tested on: HCT-15
A498 = tested on: A498
SF-539 = tested on: SF-539
RPMI-8226 = tested on: RPMI-8226
HCC 2998 = tested on: HCC 2998
SN12C = tested on: SN12C
SK-MEL-28 = tested on: SK-MEL-28
Malme-3M = tested on: Malme-3M
Hs-578T = tested on: Hs-578T
DU-145 = tested on: DU-145
MDA-MB-435 = tested on: MDA-MB-435
OVCAR-3 = tested on: OVCAR-3
BT-549 = tested on: BT-549
OVCAR-5 = tested on: OVCAR-5
786-0 = tested on: 786-0
SK-OV-3 = tested on: SK-OV-3
UO-31 = tested on: UO-31
SNB-75 = tested on: SNB-75
SK-MEL-5 = tested on: SK-MEL-5
NCI-H522 = tested on: NCI-H522
HT-29 = tested on: HT-29
OVCAR-8 = tested on: OVCAR-8

C=C(C)C1CCC(C(=O)O)CC1 (stereo not given)
GI50 (A549): > 100 µM (inactive)
GI50 (HOP-62): > 100 µM (inactive)
GI50 (PC-3): > 100 µM (inactive)
GI50 (NCI-H23): > 100 µM (inactive)
GI50 (HOP-92): > 100 µM (inactive)
GI50 (CAKI-1): > 100 µM (inactive)
GI50 (CCRF-CEM): > 100 µM (inactive)
GI50 (SK-MEL-2): > 100 µM (inactive)
GI50 (SF-295): > 100 µM (inactive)
GI50 (MCF7): > 100 µM (inactive)
GI50 (MDA-MB-231): > 100 µM (inactive)
GI50 (SF-268): > 100 µM (inactive)
GI50 (SW-620): > 100 µM (inactive)
GI50 (SNB-19): > 100 µM (inactive)
GI50 (KM12): > 100 µM (inactive)
GI50 (ACHN): > 100 µM (inactive)
GI50 (TK-10): > 100 µM (inactive)
GI50 (UACC-257): > 100 µM (inactive)
GI50 (RXF 393): > 100 µM (inactive)
GI50 (M14): > 100 µM (inactive)
GI50 (LOX IMVI): > 100 µM (inactive)
GI50 (T47D): > 100 µM (inactive)
GI50 (COLO 205): > 100 µM (inactive)
GI50 (K562): > 100 µM (inactive)
GI50 (U-251): > 100 µM (inactive)
GI50 (UACC-62): > 100 µM (inactive)
GI50 (EKVX): > 100 µM (inactive)
GI50 (MDA-N): > 100 µM (inactive)
GI50 (HCT-116): > 100 µM (inactive)
GI50 (IGROV-1): > 100 µM (inactive)
GI50 (NCI-H226): > 100 µM (inactive)
GI50 (MOLT-4): > 100 µM (inactive)
GI50 (NCI-H460): > 100 µM (inactive)
GI50 (HCT-15): > 100 µM
GI50 (A498): > 100 µM (inactive)
GI50 (SF-539): > 100 µM (inactive)
GI50 (RPMI-8226): > 100 µM (inactive)
GI50 (HCC 2998): > 100 µM (inactive)
GI50 (SN12C): > 100 µM (inactive)
GI50 (SK-MEL-28): > 100 µM (inactive)
GI50 (Malme-3M): > 100 µM (inactive)
GI50 (Hs-578T): > 100 µM (inactive)
GI50 (DU-145): > 100 µM (inactive)
GI50 (MDA-MB-435): > 100 µM (inactive)
GI50 (OVCAR-3): > 100 µM (inactive)
GI50 (BT-549): > 100 µM (inactive)
GI50 (OVCAR-5): > 100 µM (inactive)
GI50 (786-0): > 100 µM (inactive)
GI50 (SK-OV-3): > 100 µM (inactive)
GI50 (UO-31): > 100 µM (inactive)
GI50 (SNB-75): > 100 µM (inactive)
GI50 (SK-MEL-5): > 100 µM (inactive)
GI50 (NCI-H522): > 100 µM (inactive)
GI50 (HT-29): > 100 µM (inactive)
GI50 (OVCAR-8): > 100 µM (inactive)
